Experimental data reported in publication PMC12973313 (Chemical Science, 2026).
Where “and” joins values, the source holds several entries; their conditions need not be identical. Equal entries are not always repeated.

What was measured:
[1] = 1H NMR titration, host:guest association; details: 1:1 binding isotherm, DMSO-d6 0.5% H2O, 298 K, guest as TBA salt
Description: Here H2PO4^- was used to model the phosphate present in the phospholipid headgroup, while Cl^- was incorporated into these studies as a common biologically relevant anion. […] Summary […] using Bindfit v0.5,1 conducted in DMSO-d6/0.5 % H2O at 298 K. Anionic guest species were supplied as the TBA salt. Data was fitted to both 1:1, 1:2 and 2:1 binding isotherm. […] 94

[2] = Haemolysis assay; type: cell-based; details: human, human red blood cells (erythrocytes), pH 7.4, 1.39 mM total molecular concentration, 37 °C
Description: Preparation of 96-well plate: Protocol modified from Travis et al.4 Heparinised human red blood cells collected from a volunteer and washed three times in PBS (pH 7.4). Compounds were serial diluted using PBS buffer across a 96-well V bottom Greiner plate. Negative control (100 µL PBS), and positive control (100 µL 0.1 % (v/v) Triton-X-100) were added to the plate.
100 µL of 10 % (v/v) of blood suspension added to all wells. Plates were incubated for 60 minutes at 37 °C. After incubation, plates were centrifuged for 15 minutes at 4680 rpm. The resultant supernatant was then transferred to a 96-well flat bottom plate and absorbance read at 540 nm (Fluostar Omega). Percent haemolysis was calculated using the formula as
Equation S2 - Percentage haemolysis calculation.
Haemolysis (%) = 𝐴𝑠𝑎𝑚𝑝𝑙𝑒 − 𝐴𝑛𝑒𝑔𝑎𝑡𝑖𝑣𝑒 𝑋 100

[3] = H2O 5% EtOH, 5.56 mM; cited from earlier work
[4] = Dynamic light scattering, H2O 5% EtOH; type: physicochemical; details: 5.56 mM, 298 K, after annealing
Description: The size and stability of those self-associated structures present were confirmed through a combination of dynamic light scattering (DLS) and zeta potential measurements respectively (Table 2). […] Therefore, the presence of the alkyl/aromatic R-groups within the amino acid appended SSA are confirmed to increase higher order self-associated aggregate stability.
Table S9 - The peak maxima and polydispersity indices obtained for 1, 3, 5, 7, 9, and 1:1 enantiomeric mixtures of 3 + 5 and 7 + 9 obtained at 5.56 mM in H2O/5 % EtOH. An annealing process was applied in which the samples were heated to approximately 313 K before being cooled down to a measurement temperature of 298 K. The errors given are the standard error of the average.
Compound Repeat Peak maxima (nm) Polydispersity index

[5] = Cl-/NO3- antiport assay, chloride ISE; type: biochemical; details: pH 7.2; for EC50 Cl-/NO3- antiport: 50% chloride efflux after 270 s; for n (Hill coefficient): Hill analysis
Description: Although evidence supports the hypothesis that SSAs are able to act as selective phospholipid membrane coordination and/or disruption agents,[39] to date we have minimal evidence that verifies the role ion transport events may play in the SSA mechanism of biological activity, or the types of transmembrane SSA structures which may be involved in facilitating these events, such as ion channels or membrane pores. Therefore, to confirm the role ion transport may play in the biological activity of SSAs, we explored the ability of SSAs 1, 3, 5, 7, and 9 to mediate ion transport in phospholipid vesicles (Section S17). We initially performed a Cl^−/NO3^− antiport assay.[52] Large unilamellar vesicles composed of 1-palmitoyl-2-oleoyl-sn-glycero-3-phosphocholine (POPC) were prepared containing NaCl (ionic strength = 500 mM) buffered to pH 7.2 with sodium phosphate salts. The vesicles were suspended in NaNO3 (ionic strength = 500 mM) at pH 7.2 (Fig. 4a). On addition of the SSA as a 5 mM DMSO stock solution (which was maintained throughout these experiments to minimise any variation in aggregation state induced by changes in concentration), any resulting chloride efflux was detected using a chloride ion selective electrode (ISE). All of these molecules but compound 1 (Section S17) mediated a modest amount of chloride efflux when added at 10 mol% w.r.t. lipid (Fig. 4b and c)which is surprising given the negative charge of the SSA anion. […] We were unable to observe significant transport activity when these compounds were added as a stock solution dissolved in water (5 mM). […]
Section S3: Biological methods
Preparation of vesicles: A stock solution of 1-palmitoyl-2-oleoyl-sn-glycero-3-phosphocholine (POPC) was prepared by dissolving 1 g of POPC in 35 mL de-acidified CHCl3. The CHCl3 was passed through a column of basic alumina before use. This solution was stored at -20 °C when […]
A lipid film of POPC was prepared by adding 1–4 mL of the above stock solution into a pre-weighed falcon tube and gently removing the CHCl3 under a stream of nitrogen. The lipid film was dried under vacuum overnight. The lipid film was re-hydrated by vortexing with the desired internal buffer solution, then subjected to 9 freeze-thaw cycles. Typically, the lipids were not thawed on the last cycle and were stored at -20 °C for use at a later date.
The lipid was thawed to room temperature and allowed to stand for 30 mins, then extruded 27 times through a 200 nm polycarbonate membrane. The resulting unilamellar vesicles were dialysed against the desired external buffer solution for a minimum of 2 hours.
Transport experiments protocol: The vesicles prepared as described above were diluted to a known volume of 5 mL using the desired external buffer solution. This solution was further diluted into individual 5 mL samples for testing at a final lipid concentration of 1 mM. The transporter was added to the vesicles from a stock solution in DMSO (5 mM) after 30 s in order to initiate the transport and any resulting chloride efflux was monitored using a chloride selective electrode (ISE – Cole Parmer). At the end of the experiment, the vesicles were lysed by the addition of 40 µL Triton-X 100 (10 wt% in H2O). The final electrode reading was taken 2 mins later and used to calibrate 100% chloride efflux. Each experiment was performed 3 […]
Section S17: Ion transport studies
Cl-/NO3- antiport Hill plots – pH 7.2
Internal buffer: 500 mM NaCl buffered to pH 7.2 with 5 mM sodium phosphate salts.
External buffer: 500 mM NaNO3 buffered to pH 7.2 with 5 mM sodium phosphate salts.
Figure S134 - Transport data for the Cl-/NO3- antiport Hill plot experiment with compound 1.
Full Hill analysis was not performed due to the low observed activity of this compound.
(1 picture or pasted object on this page, not shown here)

| SMILES | Ka / Kass (M-1), guest Cl- [1] | Ka / Kass (M-1), guest H2PO4- [1] | hemolysis at 60 min, 1.39 mM [2] [%] | Zeta potential (mV) [3] | dH (nm), DLS intensity distribution peak maxima ([4]; listed as 3) | EC50 Cl-/NO3- antiport [5] [mol% w.r.t. lipid] | n (Hill coefficient) ([5]; listed as 3) | dH (nm), DLS intensity distribution peak maxima ([4]; listed as 5) | n (Hill coefficient) ([5]; listed as 5) | dH (nm), DLS intensity distribution peak maxima [4] | n (Hill coefficient) [5] |
| --- | --- | --- | --- | --- | --- | --- | --- | --- | --- | --- | --- |
| O=C(O)CNC(=O)Nc1ccc(C(F)(F)F)cc1 [SSA 1] | 4.33 M⁻¹ | 12.59 M⁻¹ | 0.29 | -37 mV and −37 (ref. [30]) mV | – | – | – | – | – | – | – |
| CC(C)CC(NC(=O)Nc1ccc(C(F)(F)F)cc1)C(=O)O (stereo not shown) [SSA 3] | No evidence of host: guest complex formation detected | No evidence of host: guest complex formation detected | – | – | 265.65 (± 19.29) nm and 266 nm | > 15 | 1.4 | – | – | – | – |
| CC(C)CC(NC(=O)Nc1ccc(C(F)(F)F)cc1)C(=O)O (stereo not shown) [SSA 5] | No evidence of host: guest complex formation detected | – | – | – | – | > 15 | – | 174.05 (± 13.00) nm and 174 nm | 1.7 | – | – |
| O=C(Nc1ccc(C(F)(F)F)cc1)N[C@@H](Cc1ccccc1)C(=O)O [SSA 7] | – | 30.27 M⁻¹ and 30 M⁻¹ | 0.47 | – | – | > 15 | – | – | – | 166.62 (± 19.14) nm and 167 nm | 1.4 |
| O=C(Nc1ccc(C(F)(F)F)cc1)N[C@H](Cc1ccccc1)C(=O)O [SSA 9] | No evidence of host: guest complex formation detected | – | – | – | – | > 15 | – | – | – | 180.99 (± 53.12) nm and 181 nm | 1.3 |
